Earlier results, collected in patent US6555228B2, “Bio-supportive medium, and methods of making and using the same” (priority 2000, dated 2003).

Legend:
Torla (=Candida) utilis = settings: pH 7, simple form
Ophyotrocha Labronica = settings: 0.1 mg L^−1 of copper
Artemia salina = settings: 1.0 mg L^−1 of copper
several dinoflagelates = settings: until organic chelation occurs
[1] = system: other classes of organisms
[2] = system: Barnacles and zebra mussels
[3] = system: Thalassiosira weissflogii; settings: very low concentrations

For `[Cu+2]` [copper], the “amount of copper toxic to Torla (=Candida) utilis” value (Torla (=Candida) utilis) is listed as 20 mg, the “growth rate of Ophyotrocha Labronica” value (Ophyotrocha Labronica) is listed as “decreased significantly” and the “growth rate of Artemia salina” value (Artemia salina) is listed as “no change”. The “generally available copper with no measurable negative effect” value (most habitats) was “below 0.62 mg/l”, the “effect of copper on dinoflagelates” value (several dinoflagelates) was “inhibit” and the lethal dose (some species) was 10 ppm. For the same molecule, the “concentration at which biolimiting occurs” value [1] was ≥ 40 ppm and the tolerance of copper [2] was “can not tolerate any copper”.

In the case of `[Zn+2]` [zinc], the “effect of zinc ion activity on growth” value [3] is listed as “growth limiting effect”.
